Data set [1] can be described thus: Solubility test of the salts in pure water (Example 6). It is filed as physicochemical. As to conditions: room temperature, balancing about 20 hours, HPLC. Here is the method: 2.0 mg of sample was precisely weighed into a liquid phase vial, 1.0 mL of purified water was added, the vial was subjected to ultrasonic treatment for about 30 seconds to disperse the samples evenly, then the vial was placed on a Labquaker rotator, and slowly rotated at room temperature for balancing. After balancing for about 20 hours, each vial was removed, and the solution was filtered with 0.45 μm nylon filter membrane. The filtrate was diluted by DMSO or not diluted and then detected by HPLC. At the same time, two parts of fused ring pyrimidine compounds were weighed and dissolved in DMSO to make standard solutions with concentration of 250 μg/mL and 500 μg/mL, respectively. The standard solutions were subjected to the HPLC detection. The sample concentration vs the peak area of HPLC principal component was used for make a standard curve, and the solubility of each sample in pure water was calculated by a external standard method.

The nature of data set [2]: Solubility test of crystal form A and crystal form B in a medium (Example 12). It is filed as physicochemical. As to conditions: for Solubility (calculated by free base of the fused ring pyrimidine compound): in mg/mL (unit assumed). The source says:
Example 12 Solubility Test of the Crystal Form A of the Fumarate of Fused Ring Pyrimidine Compound as Shown in Formula 2 and the Crystal Form B of the Adipate of Fused Ring Pyrimidine Compound as Shown in Formula 3 in a Medium

Data set [3] can be described thus: Stability test (total impurities, 20 days). It is filed as physicochemical. Here is the method:
The crystal form A of the fumarate of fused ring pyrimidine compound as shown in formula 2, the crystal form B of the adipate of fused ring pyrimidine compound as shown in formula 3 and the fused ring pyrimidine compound as shown in formula 1 were subjected to tests at a high temperature of 60° C., 25° C./60% RH, 40° C./75% RH and highlight irradiation (4500 lx±500 lx), the test time was 20 days, the sample bottles were placed under different test conditions, and samples were taken at 0 and 20 days to detect the total amount of impurities, and the test results were shown in Table 8 below.

Data set [4] can be described thus: Pharmacokinetic experiment, single intragastric dose in rats. The note with it: single dose 10 mg/kg, 0.5% MC and 0.5% Tween80 in water. It is filed as in vivo, SD rats. On the procedure: 1) Preparation of animals 9 healthy male SD rats, each with a body weight of 220-230 g, were taken, fed with standard formulated granulated feed for rats at fixed times every day, and fasted for 12 hours before the experiment, and feeding was resumed after 4 hours of administration. Rats were free to drink water before, after and during the experiment. 9 rats were randomly divided into 3 groups.
2) Formulation of drugs: The fused ring pyrimidine compound as shown in formula 1, the crystal form A of the fumarate of fused ring pyrimidine compound as shown in formula 2 and the crystal form B of the adipate of fused ring pyrimidine compound as shown in formula 3 were accurately weighed, and were formulated into a 1 mg/mL solution in water (Wahaha/111830) with 0.5% MC (Fluka/BCBK3534K) and 0.5% Tween80 (TCl/V4FSC), respectively.
3) Intragastric administration with single dose (10 mg/kg): in the first group, rats were intragastrically administered with a solution of the fused ring pyrimidine compound as shown in formula 1, in the second group, rats were intragastrically administered with a solution of the crystal form A of the fumarate of fused ring pyrimidine compound as shown in formula 2, and in the third group, rats were intragastrically administered with a solution of the crystal form B of the adipate of fused ring pyrimidine compound as shown in formula 3.
4) Collection of blood samples: About 150 μL of blood was taken from the fundus venous plexus before administration and 0.083, 0.25, 0.5, 1, 2, 4, 8 and 24 hours after administration from each rat in the three groups, and anticoagulated with K2EDTA, plasma was separated by centrifugation and the supernatant was collected for LC-MS analysis.

Another data set has as its system JAK. As to conditions: cited from earlier work.
For the next data set, the system named is FGFR. As to conditions: cited from earlier work.
A further data set concerns the target T1, FLT3 (Homo sapiens, UniProt P36888).
T1 sequence (P36888 27-993): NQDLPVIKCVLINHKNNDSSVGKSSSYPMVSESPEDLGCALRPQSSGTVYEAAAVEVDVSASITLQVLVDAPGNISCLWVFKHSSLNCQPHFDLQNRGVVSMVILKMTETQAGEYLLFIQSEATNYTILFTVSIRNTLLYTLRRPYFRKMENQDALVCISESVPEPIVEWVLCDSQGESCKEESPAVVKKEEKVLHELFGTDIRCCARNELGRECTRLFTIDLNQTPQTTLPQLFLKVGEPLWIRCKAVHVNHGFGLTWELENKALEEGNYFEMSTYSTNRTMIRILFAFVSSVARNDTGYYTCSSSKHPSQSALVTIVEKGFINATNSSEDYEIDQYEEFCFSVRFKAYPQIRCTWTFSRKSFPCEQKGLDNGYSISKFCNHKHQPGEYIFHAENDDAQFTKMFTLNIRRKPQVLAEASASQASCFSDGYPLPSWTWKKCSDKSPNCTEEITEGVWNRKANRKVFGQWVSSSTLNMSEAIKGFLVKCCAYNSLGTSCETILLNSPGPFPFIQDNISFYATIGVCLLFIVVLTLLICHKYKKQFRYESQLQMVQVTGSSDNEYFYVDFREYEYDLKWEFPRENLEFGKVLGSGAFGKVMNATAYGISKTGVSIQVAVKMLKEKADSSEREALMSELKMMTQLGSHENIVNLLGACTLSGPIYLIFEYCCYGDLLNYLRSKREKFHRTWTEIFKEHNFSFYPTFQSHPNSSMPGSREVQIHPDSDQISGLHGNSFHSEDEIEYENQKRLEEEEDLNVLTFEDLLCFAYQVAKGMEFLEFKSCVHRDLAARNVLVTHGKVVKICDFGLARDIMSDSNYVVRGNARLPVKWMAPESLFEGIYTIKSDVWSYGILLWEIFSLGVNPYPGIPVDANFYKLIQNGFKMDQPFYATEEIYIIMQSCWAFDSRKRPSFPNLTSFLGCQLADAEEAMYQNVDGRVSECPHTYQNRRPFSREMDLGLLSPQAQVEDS
As to conditions: cited from earlier work.

Another data set has as its system Src kinase. The note with it: cited from earlier work.
Where [5] appears, read: medium intestinal fluid in simulated fed state (FeSSIF).
Where [6] appears, read: medium pH 4 (50 mM phosphate buffer).
The mark [7] stands for this setting: medium pH 6 (50 mM phosphate buffer).

Molecules are shown by their SMILES. A value given as a limit tells only on which side of the number the result lay.

The values below come from patent US11352368B2, “Salt of fused ring pyrimidine compound, crystal form thereof and preparation method therefor and use thereof” (GUANGZHOU MAXINOVEL PHARMACEUTICALS CO., LTD., priority 2018, dated 2022).

As for `COc1cc(F)ccc1-c1c(C)sc2cnc(Nc3cnn(C4CCNCC4)c3)nc12` [The fused ring pyrimidine compound as shown in formula 1] [N-[7-(4-fluoro-2-methoxyphenyl)-6-methylthieno[3,2-d]pyrimidin-2-yl]-1-(piperidin-4-yl)-1H-pyrazol-4-amine], the saturated solubility in data set [1] was <1 µg/mL. The “pH value of sample solution for solubility” value in data set [2] (medium Purified water) is reported as 8.29; in data set [2] (setting [5]), 5.27; in data set [2] (setting [6]) it was 5.67; in data set [2] (setting [7]), 6.29. Also, the “Solubility (calculated by free base of the fused ring pyrimidine compound)” value is <0.001 in data set [2] (medium Purified water), 1.469 in data set [2] (setting [5]), 0.054 in data set [2] (setting [6]) and 0.025 in data set [2] (setting [7]). Also, the Impurity content in data set [3] (Day 0) worked out at 1.44%; in data set [3] (Day 20, 25° C/60% RH) it was 1.46%; in data set [3] (Day 20, 40° C/75% RH), 1.49%; in data set [3] (Day 20, 60° C) it was 1.44%; in data set [3] (Day 20, Light (4500 lx±500 lx)) it was 2.06%. Besides, the “chemical stability in the condition of high temperature and high humidity” value in data set [3] (high temperature and high humidity, 20 days) is on record as “good chemical stability”. In data set [4], the “Blood drug concentration (AUC)” value was found to be 57.7 ng·h/mL. Further, in the data set with JAK, the “inhibitory effect on JAK” value is recorded as “good inhibitory effect”. In the data set with FGFR, the “inhibitory effect on FGFR” value was “good inhibitory effect”. The “inhibitory effect on FLT3” value at FLT3 was “good inhibitory effect”. Moreover, the “inhibitory effect on Src kinase” value with Src kinase is “good inhibitory effect”.
